Results taken from ChEMBL document CHEMBL1201862, “PubChem BioAssay data set” (2004).
Values joined by “and” are separate entries in the source; they are usually repeats but may differ in a detail not shown here. Equal values may be shown once. Active and inactive are the calls of the source.

Tested on: not listed separately
Assay: cytotoxicity toward NIH3T3 fibroblasts, dose response, counter-screen, cell-based, ATP luminescence, mouse fibroblasts (AID 2010);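 note: cells exposed to compound for about 90 hours before reading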
Format: functional
For `COc1cccc(C(=O)C2CCCN(Cc3ccc(OC)c(Cn4cncn4)c3)C2)c1` (stereo not given), the EC50 was > 60 µM (not active).
With `CCN1CCN(c2ccc(S(=O)(=O)N3CCOCC3)cc2NC(=O)COc2ccc(F)cc2Cl)CC1` the EC50 was 19.2 µM (active).
In the case of `Cc1ccc(S(=O)(=O)N2CCC(C(=O)Nc3ccc(S(=O)(=O)N4CCCC4)cc3)CC2)cc1C`, the EC50 was > 30 µM (not active).
With `CCc1ccc2c(c1)C(c1ccc(N3CCOCC3)cc1)=NNC(c1ccncc1)=N2` the EC50 was > 30 µM (not active).
For `Brc1ccc(OCc2ccccc2)c(CNCc2ccncc2)c1`, the EC50 was > 60 µM (not active).

Biological target: T1, Cytochrome P450 1A2 (Homo sapiens, UniProt P05177);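 note: PubChem cytochrome P450 panel assay, CYP1A2 panel member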
T1 sequence (P05177 whole entry): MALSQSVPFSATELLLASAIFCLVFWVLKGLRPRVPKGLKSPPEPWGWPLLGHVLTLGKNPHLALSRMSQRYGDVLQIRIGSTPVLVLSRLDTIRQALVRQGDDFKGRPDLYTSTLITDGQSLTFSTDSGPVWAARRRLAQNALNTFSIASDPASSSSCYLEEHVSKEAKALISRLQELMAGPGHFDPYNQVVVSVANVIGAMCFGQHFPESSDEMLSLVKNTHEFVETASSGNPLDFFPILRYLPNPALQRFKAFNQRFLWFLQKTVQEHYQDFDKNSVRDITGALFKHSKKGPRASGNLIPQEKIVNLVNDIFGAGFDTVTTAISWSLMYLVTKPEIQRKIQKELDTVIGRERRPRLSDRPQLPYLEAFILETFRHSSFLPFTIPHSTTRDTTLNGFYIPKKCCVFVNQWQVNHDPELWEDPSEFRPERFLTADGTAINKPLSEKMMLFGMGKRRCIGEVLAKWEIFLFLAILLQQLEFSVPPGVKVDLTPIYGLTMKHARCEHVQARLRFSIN
With `CCC/C=C(\CCC)C(NS(=O)(=O)c1ccc(Cl)cc1)c1ccccc1` (stereo not given) the AC50 was 12.6 µM (inconclusive).
In the case of `C[C@H]1C=C2C=C[C@H](C)[C@H](CC[C@@H]3C[C@@H](O)CC(=O)O3)[C@H]2[C@@H](OC(=O)[C@@H](C)CCO)C1`, the AC50 was 31.6 µM (inconclusive).
In the case of `C[C@@H]1C[C@H](OC(=O)c2ccccc2O)CC(C)(C)C1`, the AC50 was 12.6 µM (inconclusive).
For `CCCN(CCC)[C@H]1CCc2c(F)ccc(O)c2C1`, the AC50 was 12.6 µM (inconclusive) and 25.1 µM (inconclusive).
For `COc1cccc(/C=N/NC(=O)c2cccc([N+](=O)[O-])c2)c1OS(=O)(=O)c1ccc(C)cc1`, the AC50 was 6.31 µM (inconclusive).
With `O=C1CCc2cc(OCCCCc3nnnn3C3CCCCC3)ccc2N1` [CILOSTAZOL] the AC50 was 39.8 µM (inconclusive).
In the case of `CC(=O)CCCCn1c(=O)c2c(ncn2C)n(C)c1=O` [PENTOXIFYLLINE], the AC50 was 12.6 µM (inconclusive).

Tested on: not listed separately
Assay: inhibitors of intracellular T. cruzi replication, confirmation, NIH3T3 host cells, beta-gal luminescence (AID 2044);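 note: intracellular parasites grown in NIH/3T3 mouse fibroblasts as host cells; luminescent beta-galactosidase reporter signal from transgenic T. cruzi replicating inside host cells; inhibitors lower the luminescence signal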
Format: functional, cell-based
In the case of `COc1cccc(C(=O)C2CCCN(Cc3ccc(OC)c(Cn4cncn4)c3)C2)c1` (stereo not given), the EC50 was 0.398 µM (active).
With `CCN1CCN(c2ccc(S(=O)(=O)N3CCOCC3)cc2NC(=O)COc2ccc(F)cc2Cl)CC1` the EC50 was 1.06 µM (active).
For `Cc1ccc(S(=O)(=O)N2CCC(C(=O)Nc3ccc(S(=O)(=O)N4CCCC4)cc3)CC2)cc1C`, the EC50 was 0.795 µM (active).
In the case of `CCc1ccc2c(c1)C(c1ccc(N3CCOCC3)cc1)=NNC(c1ccncc1)=N2`, the EC50 was 1.5 µM (active).
In the case of `Brc1ccc(OCc2ccccc2)c(CNCc2ccncc2)c1`, the EC50 was 0.802 µM (active).

Biological target: T2, Rac GTPase-activating protein 1 (Homo sapiens, UniProt Q9H0H5)
T2 sequence (Q9H0H5 whole entry): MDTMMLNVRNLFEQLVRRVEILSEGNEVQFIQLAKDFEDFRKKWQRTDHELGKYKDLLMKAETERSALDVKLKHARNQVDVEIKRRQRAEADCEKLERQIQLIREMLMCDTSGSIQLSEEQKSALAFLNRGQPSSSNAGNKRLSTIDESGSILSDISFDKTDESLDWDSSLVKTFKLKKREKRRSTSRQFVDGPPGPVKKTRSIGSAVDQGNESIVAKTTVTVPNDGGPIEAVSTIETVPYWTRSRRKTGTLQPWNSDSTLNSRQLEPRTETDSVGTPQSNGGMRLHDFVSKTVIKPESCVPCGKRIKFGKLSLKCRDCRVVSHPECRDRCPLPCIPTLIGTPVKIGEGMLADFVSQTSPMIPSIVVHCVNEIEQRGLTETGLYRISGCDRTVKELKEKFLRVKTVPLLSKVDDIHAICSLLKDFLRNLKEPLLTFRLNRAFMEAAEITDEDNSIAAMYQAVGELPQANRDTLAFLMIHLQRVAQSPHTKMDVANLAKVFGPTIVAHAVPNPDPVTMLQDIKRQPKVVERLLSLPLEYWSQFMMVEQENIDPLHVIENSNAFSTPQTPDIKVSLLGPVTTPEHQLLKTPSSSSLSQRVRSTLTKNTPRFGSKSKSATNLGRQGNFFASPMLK
Assay: MgcRacGAP GTPase-activating activity inhibitors, confirmation, biochemical, ADP Hunter fluorescence, primary and confirmatory (AID 624330)
Format: functional
With `CN1CCC(N(C)CC(=O)Nc2ccc3c(c2)OC(F)(F)O3)CC1` the IC50 was 65.9 µM (active).
With `COc1ccc(CN2CCN(Cc3ccc4ccccc4c3)CC2)cc1OC` the IC50 was 76.4 µM (active).
For `Nc1ccc(OCc2ccco2)cc1`, the IC50 was 49.8 µM (active).
With `CC(=O)Nc1ccc(OC(=O)c2cc3ccccc3oc2=O)cc1` the IC50 was 23.2 µM (active).
With `CC(CCN1CCN(CCO)CC1)c1ccccc1` (stereo not given) the IC50 was 153 µM (active).
With `CCOC(=O)c1[nH]c2ccccc2c1N=C(S)Nc1ccccc1C` the IC50 was 65.9 µM (active).
For `CCN1C(=O)c2ccc(C(=O)Nc3ccc(O)cc3C)cc2C1=O`, the IC50 was 108 µM (active).
In the case of `NS(=O)(=O)c1ccc(CCNCC(=O)N2CCC(Cc3ccccc3)CC2)cc1`, the IC50 was 283 µM (active).
With `COc1ccc(NC(=O)c2ccc(NC(=O)CN3CCN(c4ccc(O)cc4)CC3)cc2)cc1` the IC50 was 63 µM (active).
With `N#CCCN1CCN(CCC#N)c2ccccc21` the IC50 was 16.1 µM (active).
With `CC(C)c1ccc(/C=N/N2CCCCC2)cc1` the IC50 was 220 µM (active).
With `COc1cc(/C=N/NC(=O)c2nnn(-c3nonc3N)c2C(C)C)ccc1O` the IC50 was 31 µM (active).
With `COc1c(-c2ccc(O)c(O)c2)oc2cc(O)cc(O)c2c1=O` [3-O-METHYLQUERCETIN] the IC50 was 30.3 µM (active).
